Test results reported in patent US11591306B2, “Vitamin E-based amphipathic compound, and use thereof” (Industry-University Cooperation Foundation Hanyang …, priority 2017, dated 2023).
Several values for one entry are separate records, joined by “and”; a condition that tells them apart may be missing. Equal values may be shown once. Entries after “also recorded” stand apart in the source; their conditions may differ.

Assays:
[1] = target: T1, MelBSt (melibiose permease) (Salmonella typhimurium, UniProt P30878); test: MelBSt extraction/solubilization and thermal stability, SDS-PAGE and Western blotting
T1 construct: made in house; host or cells: E. coli DW2 (ΔmelB and ΔlacZY), plasmid pK95ΔAHB/WT MelBSt/CH10
T1 sequence (P30878 whole entry): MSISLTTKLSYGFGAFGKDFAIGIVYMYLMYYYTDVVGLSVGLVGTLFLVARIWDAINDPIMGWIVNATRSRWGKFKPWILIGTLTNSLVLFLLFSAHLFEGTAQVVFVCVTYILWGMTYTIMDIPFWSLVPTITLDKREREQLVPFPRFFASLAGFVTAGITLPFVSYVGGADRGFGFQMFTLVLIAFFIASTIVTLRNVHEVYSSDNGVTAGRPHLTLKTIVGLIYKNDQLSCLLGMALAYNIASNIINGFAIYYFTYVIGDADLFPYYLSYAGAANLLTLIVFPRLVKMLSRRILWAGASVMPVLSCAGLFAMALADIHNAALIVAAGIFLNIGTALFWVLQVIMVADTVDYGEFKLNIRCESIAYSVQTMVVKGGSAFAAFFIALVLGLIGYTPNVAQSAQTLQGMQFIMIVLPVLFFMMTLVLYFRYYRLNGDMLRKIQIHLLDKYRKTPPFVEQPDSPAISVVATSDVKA
Description: Specifically, Salmonella typhimurium MelBSt (melibiose permease) having a 10 His tag at the C-terminus was expressed in E. coli DW2 cells (ΔmelB and ΔlacZY) using a pK95ΔAHB/WT MelBSt/CH10 plasmid. Cell growth and membrane preparation were carried out according to the methods disclosed in the paper written by A. S. Ethayathulla et al. (Nat. Commun. 2014, 5, 3009). A protein assay was performed using a Micro BCA kit (Thermo Scientific, Rockford, Ill.). MelBSt stability in VEGs or DDM was evaluated using the protocol disclosed in Nat. Methods 2010, 7, 1003-1008, written by P. S. Chae et al. A MelBSt-containing membrane sample (the final protein concentration was 10 mg/mL) was incubated in a solubilization buffer containing 1.5% (w/v) DDM or VEGs (50 mM sodium phosphate, pH 7.5, 200 mM NaCl, 10% glycerol, 20 mM melibiose) at two different temperatures (0 and 23° C.) for 90 minutes. To remove an insoluble material, ultracentrifugation was performed using a Beckman Optima™ MAX ultracentrifuge equipped with a TLA-100 rotor at 355,590 g and 4° C. for 30 minutes. […] The loaded samples were analyzed by SDS-15% PAGE, and then visualized by immunoblotting with a Penta-His-HRP antibody (Qiagen, Germantown, Md.).
To assess the thermal stability of MelBSt in various amphipathic molecules, MelBSt extracted with individual amphipathic molecules at 23° C. was subjected to additional thermal treatment at three different temperature (45, 55 and 65° C.) and ultracentrifugation, followed by SDS-15% PAGE and Western blotting. MelBSt was detected using a SuperSignalWest Pico chemiluminescent substrate by an ImageQuant LAS 4000 Biomolecular Imager (GE Healthcare Life Science).

[2] = Hydrodynamic radius of micelles by dynamic light scattering (DLS); type: physicochemical; settings: at 1.0 wt %
Description: A method of measuring the radius of a micelle is not particularly limited, but may be a method well known in the art, for example, dynamic light scattering (DLS).
(§1) To identify the properties of VEGs synthesized according to the synthetic methods of Preparation Examples 1 to […] molecular weights (M.W.) and critical micellar concentrations (CMCs) of VEGs, and the hydrodynamic radii (Rh) of formed micelles were measured.
(§2) Specifically, the CMCs were measured using hydrophobic fluorescence staining and diphenylhexatriene (DPH), and the hydrodynamic radii (Rh) of the micelles formed by each formulation were measured by dynamic light scattering (DLS).

[3] = target: T2, UapA (Emericella nidulans, UniProt Q07307, G411V); test: UapA thermal stability, CPM assay; design: made in house; host or cells: Saccharomyces cerevisiae FGY217 membranes; settings: CMC+0.2 wt %, 40° C. for 120 minutes
T2 sequence (Q07307 12-574 G411V): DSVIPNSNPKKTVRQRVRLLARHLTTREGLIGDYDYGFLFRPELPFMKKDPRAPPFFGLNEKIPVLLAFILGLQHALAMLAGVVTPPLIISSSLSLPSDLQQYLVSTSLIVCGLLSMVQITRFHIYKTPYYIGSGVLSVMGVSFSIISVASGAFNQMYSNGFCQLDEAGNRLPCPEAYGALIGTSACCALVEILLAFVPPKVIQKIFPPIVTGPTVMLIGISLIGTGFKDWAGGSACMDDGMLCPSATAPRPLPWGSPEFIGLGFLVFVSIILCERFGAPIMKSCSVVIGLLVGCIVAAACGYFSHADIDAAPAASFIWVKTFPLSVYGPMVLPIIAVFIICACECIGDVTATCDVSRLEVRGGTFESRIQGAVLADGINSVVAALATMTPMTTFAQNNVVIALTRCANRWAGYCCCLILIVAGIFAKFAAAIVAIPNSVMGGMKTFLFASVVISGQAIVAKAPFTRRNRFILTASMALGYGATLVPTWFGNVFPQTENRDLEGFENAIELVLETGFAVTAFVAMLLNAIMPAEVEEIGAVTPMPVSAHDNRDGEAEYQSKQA
Description: UapAG411VΔ1-11 (hereinafter, referred to as “UapA”) was expressed in a Saccharomyces cerevisiae FGY217 strain by GFP fusion, and isolated into a sample buffer (20 mM Tris (pH 7.5), 150 mM NaCl, 0.03% DDM, 1 mM xanthine), which was performed according to the method disclosed in the paper written by J. Leung et al. (Mol. Menthr. Biol. 2013, 30, 32-42). The protein was concentrated to be approximately 10 mg/ml using a 100 kDa molecular weight cutoff filter (Millipore). The protein was diluted 1:150 with a buffer containing DDM, VEG (VEG-1, VEG-2, VEG-3, VEG-4 or VEG-5) or LMNG at CMC+0.2 wt % in Greiner 96. CPM dye (Invitrogen) stored in DMSO (Sigma) was diluted with a dye buffer (20 mM Tris (pH 7.5), 150 mM NaCl, 0.03% DDM, 5 mM EDTA), and 3 μL of the diluted dye was added to an individual protein sample. The reaction mixture was treated at a constant temperature of 40° C. for 120 minutes. A fluorescence emission intensity was monitored using a microplate spectrofluorometer set to excitation and emission wavelengths of 387 and 463 nm, respectively. The maximum fluorescence value was used to calculate the percentage of a protein folded during incubation. The relative amount of the folded protein was plotted over time using GraphPad Prism.

[4] = Critical micelle concentration by hydrophobic fluorescence staining with diphenylhexatriene (DPH); type: physicochemical; settings: aqueous solution
Description: A method of measuring CMC is not particularly limited, and may be a method widely known in the art, for example, fluorescent staining using diphenylhex riene (DPH).
as §1, §2

[5] = target: T2, UapA; test: UapA extraction and thermal stability by fluorescence size exclusion chromatography (FSEC); design: made in house; settings: for UapA integrity after thermal treatment (FSEC): 45° C. for 10 minutes; for Ability to extract and solubilize UapA (FSEC): before thermal treatment, 60 minutes on ice
Description: The membrane containing UapA was resuspended in a pH 8.0 PBS buffer containing 10 mM imidazole, 150 mM NaCl and 10% glycerol, and a protein concentration was measured. The membrane was adjusted to a concentration of 1 mg/ml, and a 1 ml aliquot was incubated for 60 minutes with each of 1.0 mL of DDM, LMNG, VEG-3 and VEG-5, on ice under stirring. A 100 uL aliquot was obtained from each tube and subjected to ultracentrifugation for 10 minutes at 150,000 g, and then fluorescent SEC (FSEC) was performed on each sample. The remaining soluble fractions were incubated for 10 minutes at 45° C. The thermally-treated samples were applied to FSEC to monitor the integrity of a transporter. FSEC was performed using a Superose6 column (GE Healthcare) equilibrated with a buffer containing an appropriate preparation (DDM, LMNG, VEG-3 or VEG-5).

[6] = target: T3, β2AR (Homo sapiens, UniProt P07550); test: β2AR stability, [3H]-dihydroalprenolol (DHA) ligand binding; settings: CMC+0.2 wt %, 10 days at room temperature
T3 construct: made in house; host or cells: Sf9 insect cells, baculovirus
T3 sequence (P07550 whole entry): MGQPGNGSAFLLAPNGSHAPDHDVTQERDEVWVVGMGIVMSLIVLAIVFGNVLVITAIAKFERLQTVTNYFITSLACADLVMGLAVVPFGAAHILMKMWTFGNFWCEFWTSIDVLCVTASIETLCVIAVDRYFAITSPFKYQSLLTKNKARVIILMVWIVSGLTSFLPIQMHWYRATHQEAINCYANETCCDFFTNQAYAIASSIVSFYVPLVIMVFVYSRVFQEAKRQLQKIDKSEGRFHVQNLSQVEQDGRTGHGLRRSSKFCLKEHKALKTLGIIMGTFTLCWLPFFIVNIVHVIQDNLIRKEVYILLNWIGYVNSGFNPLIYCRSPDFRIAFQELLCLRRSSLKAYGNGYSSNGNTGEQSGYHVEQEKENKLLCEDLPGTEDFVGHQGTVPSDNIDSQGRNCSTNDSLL
Description: A receptor was expressed in Sf9 insect cells infected with Baculovirus and solubilized in 1% DDM. The DDM-solubilized receptor was purified by alprenolol-sepharose in the presence of 0.01% cholesteryl succinate (CHS). β2AR purified by DDM was diluted with a buffer containing DDM or VEGs (VEG-1, VEG-2, VEG-3 and VEG-5) to reach the final concentration of CMC+0.2 wt %. β2AR solubilized in each compound was stored for 10 days at room temperature, and the ligand binding ability of the receptor was measured at regular intervals by incubating the receptor with 10 nM radioactive [^3H]-dihydroalprenolol (DHA) for 30 minutes at room temperature. The mixture was loaded into a G-50 column, and a supernatant was collected using a certain amount of binding buffer (supplemented with […] pH 7.5, 100 mM NaCl, 0.5 mg/ml BSA). In addition, a 15 ml scintillation fluid was added. Receptor-binding [^3H]-DHA was measured using a scintillation counter (Beckman).

[7] = target: T4, β2AR-Gs complex (Homo sapiens, UniProt P07550); settings: complex purified by DDM, previous study; cited from earlier work
T4 construct: made in house
T4 sequence (P07550 whole entry): as above
T4 sequence (P63092 whole entry partner): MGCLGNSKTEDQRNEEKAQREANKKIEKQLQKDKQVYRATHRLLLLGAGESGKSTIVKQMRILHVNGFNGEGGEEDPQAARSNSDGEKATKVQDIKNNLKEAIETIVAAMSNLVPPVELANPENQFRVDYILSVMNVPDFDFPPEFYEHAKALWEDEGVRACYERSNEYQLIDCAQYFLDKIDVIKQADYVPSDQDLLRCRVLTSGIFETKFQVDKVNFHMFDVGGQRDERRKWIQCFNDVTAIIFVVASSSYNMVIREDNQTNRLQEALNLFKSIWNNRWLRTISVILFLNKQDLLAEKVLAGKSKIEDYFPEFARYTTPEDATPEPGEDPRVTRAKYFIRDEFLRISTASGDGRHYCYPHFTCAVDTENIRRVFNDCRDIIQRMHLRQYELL
T4 sequence (P62873 whole entry partner): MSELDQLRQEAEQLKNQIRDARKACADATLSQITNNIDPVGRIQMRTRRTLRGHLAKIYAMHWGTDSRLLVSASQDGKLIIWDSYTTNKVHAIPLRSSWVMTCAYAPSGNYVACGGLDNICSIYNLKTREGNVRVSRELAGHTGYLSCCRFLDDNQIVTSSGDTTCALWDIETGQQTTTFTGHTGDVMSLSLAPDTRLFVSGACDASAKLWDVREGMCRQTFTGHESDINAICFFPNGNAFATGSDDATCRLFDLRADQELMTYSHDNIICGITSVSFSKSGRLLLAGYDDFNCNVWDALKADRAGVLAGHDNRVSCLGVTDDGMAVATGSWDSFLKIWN
T4 sequence (P59768 2-68 partner limits assumed): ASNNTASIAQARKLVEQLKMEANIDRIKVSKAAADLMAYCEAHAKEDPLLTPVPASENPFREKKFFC

[8] = target: T4, β2AR-Gs complex; settings: DDM-purified complex, previous study; cited from earlier work
[9] = 1.5 wt %, extracted at 23° C., then 55° C.

In the case of `Cc1c(C)c2c(c(C)c1O[C@@H]1OC(CO[C@@H]3OC(CO)[C@@H](O)[C@H](O)C3O)[C@@H](O[C@@H]3OC(CO)[C@@H](O)[C@H](O)C3O)[C@H](O[C@@H]3OC(CO)[C@@H](O)[C@H](O)C3O)C1O[C@@H]1OC(CO)[C@@H](O)[C@H](O)C1O)CCC(C)(CCCC(C)CCCC(C)CCCC(C)C)O2` (stereo partly shown) [VEG-5], the MelBSt solubilization efficiency [1, 9] is reported as “remained intact”, the “Rh (nm), hydrodynamic radius of micelles” value [2] is reported as 3.9 ± 0.1 nm and the “Ability to maintain UapA in a structurally stable state (CPM assay)” value [3] is reported as “excellent ability to maintain UapA in a structurally stable state”. The “CMC” value [4] was roughly 0.002 mM, the “CMC (wt %)” value [4] was roughly 0.0002 wt % and the “UapA integrity after thermal treatment (FSEC)” value (“UapA integrity” below) [5] was “maintained protein integrity”. The “Ability to extract and solubilize UapA (FSEC)” value (“Ability … (FSEC)” below) [5] was “LMNG and DDM were superior to VEG-3 and VEG-5” and the “Long-term β2AR activity ([3H]-DHA binding)” value (from here on “Long-term β2AR activity”) [6] was “rapid loss of activity over time”.

With `Cc1c(C)c2c(c(C)c1OCC(CO[C@@H]1OC(CO)[C@@H](O)[C@H](O)C1O)(CO[C@@H]1OC(CO)[C@@H](O)[C@H](O)C1O)CO[C@@H]1OC(CO)[C@@H](O)[C@H](O)C1O)CCC(C)(CCCC(C)CCCC(C)CCCC(C)C)O2` (stereo partly shown) [VEG-1] the “Rh (nm), hydrodynamic radius of micelles” value [2] was 4.2 ± 0.1 nm, the “CMC” value [4] was roughly 0.002 mM and the “CMC (wt %)” value [4] was roughly 0.0002 wt %.

In the case of `CCCCCCCCCCCCO[C@@H]1O[C@H](CO)[C@@H](O[C@H]2O[C@H](CO)[C@@H](O)[C@H](O)[C@H]2O)[C@H](O)[C@H]1O` [DDM, n-dodecyl-β-D-maltopyranoside, reference compound], the “MelBSt extraction/solubilization efficiency from the cell membrane” value ([1]; 1.5 wt % detergent, 0° C. and 23° C., 90 minutes) is reported as “more efficient; also recorded: higher protein extraction efficiency than VEGs”, the MelBSt solubilization efficiency ([1]; 1.5 wt %, extracted at 23° C., then 45° C.) is reported as “almost similar efficiencies” and the MelBSt solubilization efficiency [1, 9] is reported as “significant decrease”. The “Integrity of the purified β2AR-Gs complex” value [7] was “significant dissociation between the receptor and Gs protein even after 2 day-incubation”, the “Rh (nm), hydrodynamic radius of micelles” value [2] was 3.4 ± 0.0 nm and the “CMC” value [4] was 0.17 mM and 0.170 mM. For the same compound, the “CMC (wt %)” value [4] was 0.0087 wt %, the “UapA integrity” value [5] was “considerably degraded” and the “Ability … (FSEC)” value [5] was “superior to VEG-3 and VEG-5”. For the same compound, the “Long-term β2AR activity” value [6] was “rapid loss of activity over time” and the “Homogeneity of β2AR-Gs complex particles (EM)” value [8] was “aggregation of particles”.

For `Cc1c(C)c2c(c(C)c1OCCC(CO[C@@H]1OC(CO)[C@@H](O[C@H]3OC(CO)[C@@H](O)[C@H](O)C3O)[C@H](O)C1O)CO[C@@H]1OC(CO)[C@@H](O[C@H]3OC(CO)[C@@H](O)[C@H](O)C3O)[C@H](O)C1O)CCC(C)(CCCC(C)CCCC(C)CCCC(C)C)O2` (stereo partly shown) [VEG-4], the MelBSt solubilization efficiency [1, 9] was “remained intact”, the MelBSt solubilization ability ([1]; 1.5 wt %, extracted at 23° C., then 65° C.) was “very excellent protein solubilization ability” and the “MelBSt transporter solubilization ability in the thermal stability experiment” value ([1]; elevated temperatures (overall)) was “higher transporter solubilization ability than DDM”. For the same compound, the “Rh (nm), hydrodynamic radius of micelles” value [2] was 5.1 ± 0.1 nm, the “CMC” value [4] was roughly 0.003 mM and the “CMC (wt %)” value [4] was roughly 0.0003 wt %.

For `Cc1c(C)c2c(c(C)c1OCCOCC(CO[C@@H]1OC(CO)[C@@H](O)[C@H](O)C1O)(CO[C@@H]1OC(CO)[C@@H](O)[C@H](O)C1O)CO[C@@H]1OC(CO)[C@@H](O)[C@H](O)C1O)CCC(C)(CCCC(C)CCCC(C)CCCC(C)C)O2` (stereo partly shown) [VEG-2], the “Rh (nm), hydrodynamic radius of micelles” value [2] was 4.7 ± 0.1 nm, the “CMC” value [4] was roughly 0.003 mM and the “CMC (wt %)” value [4] was roughly 0.0003 wt %. For the same compound, the “Long-term β2AR activity” value [6] was “consistently maintained during incubation for 10 days”.

For `CCCCCCCCCCC(CCCCCCCCCC)(CO[C@@H]1O[C@H](CO)[C@@H](O[C@H]2O[C@H](CO)[C@@H](O)[C@H](O)[C@H]2O)[C@H](O)[C@H]1O)CO[C@@H]1O[C@H](CO)[C@@H](O[C@H]2O[C@H](CO)[C@@H](O)[C@H](O)[C@H]2O)[C@H](O)[C@H]1O` [LMNG, reference compound], the “UapA integrity” value [5] was “considerably degraded” and the “Ability … (FSEC)” value [5] was “superior to VEG-3 and VEG-5”.
